Measured values: ChEMBL document CHEMBL1857833, “Screening and optimization of specific chemical series against human African Trypanosomiasis (HAT)”
Converted amounts (≈) assume the structure as drawn. “And” between values parts separate entries of the source, which are not always exact repeats. Equal values may be shown once.

How the values were obtained:
[1] = test system: Trypanosoma brucei; experiment: DNDI: Inhibition of Human African Trypanosomiasis, Cross 22, in vitro; format: functional, organism-based
[2] = test system: Trypanosoma brucei rhodesiense; experiment: DNDI: Inhibition of Human African Trypanosomiasis (HAT), STIB 900, in vitro; format: functional, organism-based
[3] = test system: Trypanosoma brucei; experiment: DNDI: Inhibition of Human African Trypanosomiasis, SBRI 427, in vitro; format: functional, organism-based
[4] = DNDI: Cytotoxicity against L929 mouse fibroblasts, CYTO-SP, 24 hour; format: toxicity, cell-based; details: mouse, L929 mouse fibroblasts
[5] = DNDI: Cytotoxicity against L929 mouse fibroblasts, 72 hour.; format: toxicity, cell-based; details: mouse, L929 mouse fibroblasts
[6] = test system: Leishmania donovani; experiment: DNDI: Inhibition of formation of Leishmania donovani (strain MHOM/ET/67/L82) axenic amastigotes, in vitro.; format: functional, organism-based
[7] = test system: Trypanosoma cruzi; experiment: DNDI: Inhibition of Chagas Disease parasite Trypanosoma cruzi (Tulahuen LacZ, Clone C4), in vitro.; format: functional, organism-based
[8] = test system: Plasmodium falciparum; experiment: DNDI: Inhibition of the malaria parasite Plasmodium falciparum, in vitro; format: functional, organism-based; details: K1
[9] = DNDI: Cytotoxicity against L-6 rat myoblasts from skeletal muscle cells; format: toxicity, cell-based, L6; details: L-6 rat skeletal muscle myoblasts
[10] = DNDI: Lipophilicity measured in Chromatographic hydrophobicity index (CHI) assay, pH 7.4; format: physicochemical; details: buffer
[11] = DNDI: in vitro intrinsic clearance in mouse liver microsomes at a concentration of 10uM; format: ADME, Microsome; details: read-out: CLint in vitro
[12] = DNDI: in vitro intrinsic clearance in human liver microsomes at a concentration of 10uM; format: ADME, Microsome
[13] = DNDI: half life in mouse liver microsomes at a concentration of 10uM; format: ADME, Microsome
[14] = DNDI: half life in human liver microsomes at a concentration of 10uM; format: ADME, Microsome
[15] = DNDI: Solubility in phosphate buffered saline at pH7.4 measured by optical density (turbidimetry) at room temperature (OD-RT); format: physicochemical; details: pH 7.4
[16] = in vitro; details: mouse, t (1 / 2)
Description: DNDI: half life in mouse liver microsomes at a concentration of 1uM

[17] = DNDI: Solubility in phosphate buffered saline at pH7.4 measured by nephelometry at room temperature (NEPH-RT); format: physicochemical; details: pH 7.4
[18] = test system: Trypanosoma brucei; experiment: DNDI: Mean survival time in days (MSD) of mice after intraperitoneal injection of Human African Trypanosomiasis (HAT), EATRO 110, in vivo at 20 mg/kg/day for 4 days.; format: functional, Mus musculus
[19] = mouse, microsomes, 1 µM
Description: DNDI: in vitro intrinsic clearance in mouse liver microsomes at a concentration of 1uM

[20] = Trypanosoma brucei, SBRI 427, read-out: IC50

Row | SMILES | IC50 [2] | IC50 [3, 20] | IC50 at 24 h [4] | IC50 at 72 h [5] | IC50 [6] | IC50 [7] | IC50 [8] | IC50 [9] | chromatographic logD [10] | microsomal CLint at 10 µM [11] | CLint in vitro [12] | half-life at 10 µM [13] | half-life at 10 µM [14] | solubility kinetic [15] | MSD [18] | CLint in vitro [19] | other results
1 | CCCCCC(C)NCc1coc(-c2ccc(Br)cc2)n1 (stereo not given) | 0.532 µg/mL (≈ 1.51 µM) | 0.9 µg/mL (≈ 2.56 µM) | > 50 µg/mL | 4.47 µg/mL (≈ 12.7 µM) | 20.4 µg/mL (≈ 58 µM) | 8.2 µg/mL (≈ 23.3 µM) | 2.41 µg/mL (≈ 6.86 µM) | 12.7 µg/mL (≈ 36.1 µM) |  |  |  |  |  |  |  |  | IC50 [1]: 2.01 µg/mL (≈ 5.72 µM); IC50 [3]: 1.34 µg/mL and 1.55 µg/mL
2 | CCCCCC(C)NCc1coc(-c2ccc(OC)cc2)n1 (stereo not given) | 1.06 µg/mL (≈ 3.51 µM) | 2.13 µg/mL (≈ 7.04 µM) | 33 µg/mL (≈ 109 µM) | > 10 µg/mL | 12.4 µg/mL (≈ 41.1 µM) | 2.9 µg/mL (≈ 9.59 µM) | 1.77 µg/mL (≈ 5.85 µM) | 16 µg/mL (≈ 53 µM) | 4.16 | 15 µL/min/mg | 44 µL/min/mg | 3.17 h | 1.1 h | 6.3 µM (≈ 1.91 µg/mL) |  |  | 
3 | O/N=C(\NC1CCCC1)c1ccccc1-c1ccccc1 | 18.5 µg/mL (≈ 66 µM) | 1.17 µg/mL (≈ 4.17 µM) | > 50 µg/mL | > 10 µg/mL | 53.1 µg/mL (≈ 189 µM) | 21.4 µg/mL (≈ 76.3 µM) | 2.57 µg/mL (≈ 9.17 µM) | > 90 µg/mL | 4.3 | 243 µL/min/mg | 11 µL/min/mg | 0.2 h | 4.33 h | 50 µM (≈ 14 µg/mL) |  |  | 
4 | CCCCCC(C)NCc1coc(-c2ccc(Cl)cc2)n1 (stereo not given) | 0.478 µg/mL (≈ 1.56 µM) | 1.7 µg/mL (≈ 5.54 µM) | 17 µg/mL (≈ 55.4 µM) | 4.88 µg/mL (≈ 15.9 µM) | 18.7 µg/mL (≈ 60.8 µM) | 11.3 µg/mL (≈ 36.8 µM) | 2.6 µg/mL (≈ 8.47 µM) | 10.9 µg/mL (≈ 35.4 µM) | 5.02 | 17 µL/min/mg |  | 2.88 h |  | 6.3 µM (≈ 1.93 µg/mL) |  |  | IC50 [1]: 1.54 µg/mL (≈ 5.02 µM); IC50 [3]: 0.95 µg/mL and 1.02 µg/mL
5 | CCCCCC(C)NCc1coc(-c2ccc(OC(C)CC)cc2)n1 (stereo not given) |  | 0.68 µg/mL (≈ 1.97 µM) |  | 1.55 µg/mL (≈ 4.5 µM) |  |  |  |  | > 5.2 |  |  |  |  |  | 4 days | 3 µL/min/mg | half-life at 1 µM ([16]; liver microsomes): 4.28 h; solubility kinetic [17]: 3 µM (≈ 1.03 µg/mL)
6 | Cc1ccc(CNC(CCc2ccccc2)c2nc(-c3ccccc3)c(N3CCCCC3)o2)cc1 (stereo not given) |  | > 5 µg/mL |  | > 10 µg/mL |  |  |  |  |  |  |  |  |  |  | 4 days |  | 
7 | CCCCCC(C)NCc1coc(-c2ccc(OC3CCCC3)cc2)n1 (stereo not given) |  | 0.73 µg/mL (≈ 2.05 µM) |  | 1.38 µg/mL (≈ 3.87 µM) |  |  |  |  | > 5.2 |  |  |  |  |  | 4 days | 13 µL/min/mg | half-life at 1 µM ([16]; liver microsomes): 1.12 h; solubility kinetic [17]: 6 µM (≈ 2.14 µg/mL)
8 | CCCCCC(C)NCc1coc(-c2ccc(OCC(C)C)cc2)n1 (stereo not given) |  | 0.5 µg/mL (≈ 1.45 µM) |  | 1.48 µg/mL (≈ 4.3 µM) |  |  |  |  | > 5.2 |  |  |  |  |  | 4 days | 9 µL/min/mg | half-life at 1 µM ([16]; liver microsomes): 1.57 h; solubility kinetic [17]: 3 µM (≈ 1.03 µg/mL)
9 | O/N=C(\Nc1cccc(F)c1)c1cccnc1Oc1c(F)cccc1F |  | > 5 µg/mL |  | > 10 µg/mL |  |  |  |  |  |  |  |  |  |  | 4 days |  | 
10 | CCCCCC(C)NCc1coc(-c2cccc(OCC)c2)n1 (stereo not given) |  | 2.13 µg/mL (≈ 6.73 µM) | 17 µg/mL (≈ 53.7 µM) | 6.82 µg/mL (≈ 21.6 µM) |  |  |  |  | 4.83 | 97 µL/min/mg |  | 0.5 h |  | 6.3 µM (≈ 1.99 µg/mL) |  |  | 
11 | O/N=C(\NC1CCCCC1)c1ccccc1 | 13.6 µg/mL (≈ 62.3 µM) | 0.92 µg/mL (≈ 4.21 µM) | 50 µg/mL (≈ 229 µM) | > 10 µg/mL | 40.9 µg/mL (≈ 187 µM) | > 30 µg/mL | > 5 µg/mL | 49.7 µg/mL (≈ 227 µM) | 3.9 | 82 µL/min/mg | 10 µL/min/mg | 0.583 h | 4.82 h | > 200 µM |  | 111 µL/min/mg | half-life at 1 µM ([16]; microsomes): 0.133 h
12 | Cc1ccc(CNC(CC(C)C)c2nc(Cc3ccccc3)c(N3CCOCC3)o2)cc1 (stereo not given) |  | 1.64 µg/mL (≈ 3.78 µM) |  | > 10 µg/mL |  |  |  |  |  |  |  |  |  |  | 4 days | 155 µL/min/mg | half-life at 1 µM ([16]; liver microsomes): 0.0833 h
13 | O/N=C(\NC1CCCCC1)c1ccccc1Oc1ccccc1 | 62.6 µg/mL (≈ 202 µM) | 0.62 µg/mL (≈ 2 µM) | > 50 µg/mL | > 10 µg/mL | 73.4 µg/mL (≈ 236 µM) | > 30 µg/mL | 4.41 µg/mL (≈ 14.2 µM) | > 90 µg/mL | 4.43 | 767 µL/min/mg | 45 µL/min/mg | 0.0667 h | 1.07 h | 100 µM (≈ 31 µg/mL) |  |  | 
14 | CCCCCC(C)NCc1ccc(-c2ccccc2)cc1 (stereo not given) |  | 0.66 µg/mL (≈ 2.35 µM) | > 50 µg/mL | < 3.13 µg/mL |  |  |  |  | 4.2 | 126 µL/min/mg | 25 µL/min/mg | 0.383 h | 1.9 h | 12.5 µM (≈ 3.52 µg/mL) |  |  | 
